Laboratory results reported in patent publication US12660819B2, “Herbicidal derivatives” (SYNGENTA CROP PROTECTION AG, priority 2020, dated 2026).

Key:
Assay type in all cases: in vivo
[1] = test system: Abutilon theophrasti (ABUTH); experiment: Pre-emergence Test (glasshouse, percentage damage to the plant); conditions: 1000 g/ha unless otherwise stated, five-point scale
[2] = test system: Zea mays (ZEAMX); experiment: as above; conditions: 1000 g/ha unless otherwise stated, five-point scale
[3] = test system: Amaranthus retoflexus (AMARE); experiment: as above; conditions: 1000 g/ha unless otherwise stated, five-point scale
[4] = test system: Ipomoea hederacea (IPOHE); experiment: as above; conditions: 1000 g/ha unless otherwise stated, five-point scale
[5] = test system: Setaria faberi (SETFA); experiment: as above; conditions: 1000 g/ha unless otherwise stated, five-point scale
[6] = test system: Echinochloa crus-galli (ECHCG); experiment: as above; conditions: 1000 g/ha unless otherwise stated, five-point scale
[7] = test system: Setaria faberi (SETFA); experiment: Post-emergence Test (glasshouse, percentage damage to the plant); conditions: post-emergence spray, 1000 g/ha unless otherwise stated, evaluated after 13 days
Procedure, shortened: (§1)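 Damage was rated 13 days after treatment and expressed on a five-point scale: 5=81-100%, 4=61-80%, 3=41-60%, 2=21-40%, 1=0-20%. Spray was applied at 1000 g/ha unless otherwise stated, from acetone/water (50:50) with 0.5% Tween 20, to sown pots.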

[8] = test system: Echinochloa crus-galli (ECHCG); experiment: as above; conditions: post-emergence spray, 1000 g/ha unless otherwise stated, evaluated after 13 days
Procedure, shortened: (§2)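 Rate 1000 g/ha unless stated otherwise. Vehicle: acetone/water 50:50 with 0.5% Tween 20, diluted into aqueous spray. Timing: spray after sowing, read 13 days later. Score: 5=81-100%, 4=61-80%, 3=41-60%, 2=21-40%, 1=0-20% damage.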

[9] = test system: Ipomoea hederacea (IPOHE); experiment: as above; conditions: post-emergence spray, 1000 g/ha unless otherwise stated, evaluated after 13 days
Procedure, shortened: as §1

[10] = test system: Zea mays (ZEAMX); experiment: as above; conditions: post-emergence spray, 1000 g/ha unless otherwise stated, evaluated after 13 days
Procedure, shortened: as §1

[11] = test system: Abutilon theophrasti (ABUTH); experiment: as above; conditions: post-emergence spray, 1000 g/ha unless otherwise stated, evaluated after 13 days
Procedure, shortened: as §2

[12] = test system: Amaranthus retoflexus (AMARE); experiment: as above; conditions: post-emergence spray, 1000 g/ha unless otherwise stated, evaluated after 13 days
Procedure, shortened: as §2

Row | SMILES | percentage damage to the plant, ABUTH [1] | percentage damage to the plant, ZEAMX [2] | percentage damage to the plant, AMARE [3] | percentage damage to the plant, IPOHE [4] | percentage damage to the plant, SETFA [5] | percentage damage to the plant, ECHCG [6] | Post-emergence Test SETFA, percentage damage to the plant (five-point scale) [7] | Post-emergence Test ECHCG, percentage damage to the plant (five-point scale) [8] | Post-emergence Test IPOHE, percentage damage to the plant (five-point scale) [9] | Post-emergence Test ZEAMX, percentage damage to the plant (five-point scale) [10] | Post-emergence Test ABUTH, percentage damage to the plant (five-point scale) [11] | Post-emergence Test AMARE, percentage damage to the plant (five-point scale) [12]
1 | CCn1c(C)c(-c2ccc(C(F)F)cc2)c(=O)c(C(=O)O)c1-c1ccc(Cl)c(Cl)c1 [Compound 76, 2-(3,4-dichlorophenyl)-5-[4-(difluoromethyl)phenyl]-1-ethyl-6-methyl-4-oxo-pyridine-3-carboxylic acid] | 2 (2=21-40%) | 1 (1=0-20%) | 1 (1=0-20%) | 2 (2=21-40%) | 3 (3=41-60%) | 1 (1=0-20%) | 3 (3=41-60%) | 2 (2=21-40%) | 2 (2=21-40%) | 1 (1=0-20%) | 3 (3=41-60%) | 1 (1=0-20%)
2 | CCn1c(C)c(-c2cccc(SC)c2)c(=O)c(C(=O)O)c1-c1ccc(Cl)c(Cl)c1 [Compound 114, 2-(3,4-dichlorophenyl)-1-ethyl-6-methyl-5-(3-methylsulfanylphenyl)-4-oxo-pyridine-3-carboxylic acid] | 1 (1=0-20%) | 1 (1=0-20%) | 1 (1=0-20%) | 1 (1=0-20%) | 1 (1=0-20%) | 1 (1=0-20%) | 1 (1=0-20%) | 1 (1=0-20%) | 1 (1=0-20%) | 1 (1=0-20%) | 1 (1=0-20%) | 1 (1=0-20%)
3 | CCn1c(C)c(-c2ccc(F)c(OCC(F)(F)F)c2)c(=O)c(C(=O)O)c1-c1ccc(Cl)c(Cl)c1 [Compound 105, 2-(3,4-dichlorophenyl)-1-ethyl-5-[4-fluoro-3-(2,2,2-trifluoroethoxy)phenyl]-6-methyl-4-oxo-pyridine-3-carboxylic acid] | 1 (1=0-20%) | 1 (1=0-20%) | 3 (3=41-60%) | 1 (1=0-20%) | 4 (4=61-80%) | 2 (2=21-40%) | 4 (4=61-80%) | 3 (3=41-60%) | 1 (1=0-20%) | 2 (2=21-40%) | 2 (2=21-40%) | 2 (2=21-40%)
4 | CCOc1cccc(-c2c(C)n(CC)c(-c3ccc(Cl)c(Cl)c3)c(C(=O)O)c2=O)c1 [Compound 98, 2-(3,4-dichlorophenyl)-5-(3-ethoxyphenyl)-1-ethyl-6-methyl-4-oxo-pyridine-3-carboxylic acid] | 1 (1=0-20%) | 1 (1=0-20%) | 2 (2=21-40%) | 1 (1=0-20%) | 3 (3=41-60%) | 1 (1=0-20%) | 1 (1=0-20%) | 1 (1=0-20%) | 2 (2=21-40%) | 1 (1=0-20%) | 2 (2=21-40%) | 1 (1=0-20%)
5 | CCn1c(C)c(-c2ccc(SC)cc2)c(=O)c(C(=O)O)c1-c1ccc(Cl)c(Cl)c1 [Compound 93, 2-(3,4-dichlorophenyl)-1-ethyl-6-methyl-5-(4-methylsulfanylphenyl)-4-oxo-pyridine-3-carboxylic acid] | 1 (1=0-20%) | 1 (1=0-20%) | 1 (1=0-20%) | 1 (1=0-20%) | 4 (4=61-80%) | 3 (3=41-60%) | 2 (2=21-40%) | 3 (3=41-60%) | 2 (2=21-40%) | 1 (1=0-20%) | 2 (2=21-40%) | 1 (1=0-20%)
6 | CCn1c(C)c(-c2ccn(C)c(=O)c2)c(=O)c(C(=O)O)c1-c1ccc(Cl)c(Cl)c1 [Compound 58, 2-(3,4-dichlorophenyl)-1-ethyl-6-methyl-5-(1-methyl-2-oxo-4-pyridyl)-4-oxo-pyridine-3-carboxylic acid] | 1 (1=0-20%) | 1 (1=0-20%) | 1 (1=0-20%) | 1 (1=0-20%) | 1 (1=0-20%) | 1 (1=0-20%) | 1 (1=0-20%) | 1 (1=0-20%) | 1 (1=0-20%) | 1 (1=0-20%) | 1 (1=0-20%) | 1 (1=0-20%)
7 | CCn1c(C)c(-c2cc(OC)cc(OC)c2)c(=O)c(C(=O)O)c1-c1ccc(Cl)c(Cl)c1 [Compound 70, 2-(3,4-dichlorophenyl)-5-(3,5-dimethoxyphenyl)-1-ethyl-6-methyl-4-oxo-pyridine-3-carboxylic acid] | 1 (1=0-20%) | 1 (1=0-20%) | 1 (1=0-20%) | 1 (1=0-20%) | 3 (3=41-60%) | 1 (1=0-20%) | 3 (3=41-60%) | 2 (2=21-40%) | 1 (1=0-20%) | 2 (2=21-40%) | 2 (2=21-40%) | 1 (1=0-20%)
8 | CCn1c(C)c(-c2ccnc(OC)c2)c(=O)c(C(=O)O)c1-c1ccc(Cl)c(Cl)c1 [Compound 53, 2-(3,4-dichlorophenyl)-1-ethyl-5-(2-methoxy-4-pyridyl)-6-methyl-4-oxo-pyridine-3-carboxylic acid] | 3 (3=41-60%) | 1 (1=0-20%) | 1 (1=0-20%) | 3 (3=41-60%) | 4 (4=61-80%) | 3 (3=41-60%) | 4 (4=61-80%) | 3 (3=41-60%) | 2 (2=21-40%) | 2 (2=21-40%) | 4 (4=61-80%) | 3 (3=41-60%)
9 | CCn1c(C)c(-c2cc(F)cc(Cl)c2)c(=O)c(C(=O)O)c1-c1ccc(Cl)c(Cl)c1 [Compound 62, 5-(3-chloro-5-fluoro-phenyl)-2-(3,4-dichlorophenyl)-1-ethyl-6-methyl-4-oxo-pyridine-3-carboxylic acid] | 1 (1=0-20%) | 1 (1=0-20%) | 1 (1=0-20%) | 1 (1=0-20%) | 2 (2=21-40%) | 1 (1=0-20%) | 1 (1=0-20%) | 1 (1=0-20%) | 2 (2=21-40%) | 1 (1=0-20%) | 2 (2=21-40%) | 1 (1=0-20%)
